Patent US20230085307A1, “PYRIDAZINONE COMPOUND AND HERBICIDE” (NISSAN CHEMICAL CORPORATION, priority 2019, published 2023)

Experiments:
barnyard grass [1] = assay: Test Example 3: herbicidal effect by foliage application, Wagner pot (Table 18, symbol H); type: in vivo, barnyard grass (Echinochloa crus-galli); details: 320 g/ha
Method in brief: (§1)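 Plants were sown in alluvial soil held under 0.1–0.5 cm standing water and grown 14 days in a greenhouse at 25–30 °C. An emulsifiable formulation, water-diluted to the set dose, was then sprayed onto the foliage, and effects were scored three weeks later using previously defined criteria.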

Chinese sprangletop = assay: Test Example 3: herbicidal effect by foliage application, Wagner pot (Table 18, symbol D); type: in vivo, chinese sprangletop (Leptochloa chinensis); details: 320 g/ha
Method in brief: as §1

rice flat sedge = assay: Test Example 3: herbicidal effect by foliage application, Wagner pot (Table 18, symbol E); type: in vivo, rice flat sedge (Cyperus iria); details: 320 g/ha
Method in brief: as §1

southern crabgrass [2] = assay: Test Example 4: herbicidal effect by soil treatment (Table 19, symbol F); type: in vivo, southern crabgrass (Digitaria ciliaris); details: amount of applied herbicide 320 g/ha
Method in brief: (§2)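 Applied as a water-diluted emulsion, the compound was sprayed onto soil covering newly sown seeds. Evaluation came three weeks after application, in a greenhouse held at 25° C. to 30° C.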

green foxtail [3] = assay: Test Example 4: herbicidal effect by soil treatment (Table 19, symbol G); type: in vivo, green foxtail (Setaria viridis); details: amount of applied herbicide 320 g/ha
Method in brief: as §2

barnyard grass [4] = assay: Test Example 4: herbicidal effect by soil treatment (Table 19, symbol H); type: in vivo, barnyard grass (Echinochloa crus-galli); details: amount of applied herbicide 320 g/ha
Method in brief: as §2

wild oat [5] = assay: Test Example 4: herbicidal effect by soil treatment (Table 19, symbol I); type: in vivo, wild oat (Avena fatua); details: amount of applied herbicide 320 g/ha
Method in brief: as §2

blackgrass [6] = assay: Test Example 4: herbicidal effect by soil treatment (Table 19, symbol J); type: in vivo, blackgrass (Alopecurus myosuroides); details: amount of applied herbicide 320 g/ha
Method in brief: as §2

Italian ryegrass [7] = assay: Test Example 4: herbicidal effect by soil treatment (Table 19, symbol K); type: in vivo, Italian ryegrass (Lolium multiflorum); details: amount of applied herbicide 320 g/ha
Method in brief: as §2

windgrass [8] = assay: Test Example 4: herbicidal effect by soil treatment (Table 19, symbol L); type: in vivo, windgrass (Apera spica-venti); details: amount of applied herbicide 320 g/ha
Method in brief: as §2

velvetleaf [9] = assay: Test Example 4: herbicidal effect by soil treatment (Table 19, symbol M); type: in vivo, velvetleaf (Abutilon theophrasti); details: amount of applied herbicide 320 g/ha
Method in brief: as §2

redroot pigweed [10] = assay: Test Example 4: herbicidal effect by soil treatment (Table 19, symbol N); type: in vivo, redroot pigweed (Amaranthus retroflexus); details: amount of applied herbicide 320 g/ha
Method in brief: as §2

lambsquarters [11] = assay: Test Example 4: herbicidal effect by soil treatment (Table 19, symbol O); type: in vivo, lambsquarters (Chenopodium album); details: amount of applied herbicide 320 g/ha
Method in brief: as §2

chickweed [12] = assay: Test Example 4: herbicidal effect by soil treatment (Table 19, symbol P); type: in vivo, common chickweed (Stellaria media); details: amount of applied herbicide 320 g/ha
Method in brief: as §2

persian speedwell [13] = assay: Test Example 4: herbicidal effect by soil treatment (Table 19, symbol R); type: in vivo, Persian speedwell (Veronica persica); details: amount of applied herbicide 320 g/ha
Method in brief: as §2

southern crabgrass [14] = assay: Test Example 5: herbicidal effect by foliage application, plastic box (Table 20, symbol F); type: in vivo, southern crabgrass (Digitaria ciliaris); details: amount of applied herbicide 320 g/ha; foliage application after 14-day growth; evaluated three weeks after application
Method in brief: (§3)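 Sow seeds spot-wise in sterilized diluvial soil; cover with ~1.5 cm soil. Grow 14 days in greenhouse, 25° C. to 30° C. Spray foliage with emulsion diluted to predetermined amount. Rate effect after 3 weeks.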

green foxtail [15] = assay: Test Example 5: herbicidal effect by foliage application, plastic box (Table 20, symbol G); type: in vivo, green foxtail (Setaria viridis); details: amount of applied herbicide 320 g/ha; foliage application after 14-day growth; evaluated three weeks after application
Method in brief: as §3

barnyard grass [16] = assay: Test Example 5: herbicidal effect by foliage application, plastic box (Table 20, symbol H); type: in vivo, barnyard grass (Echinochloa crus-galli); details: amount of applied herbicide 320 g/ha; foliage application after 14-day growth; evaluated three weeks after application
Method in brief: as §3

wild oat [17] = assay: Test Example 5: herbicidal effect by foliage application, plastic box (Table 20, symbol I); type: in vivo, wild oat (Avena fatua); details: amount of applied herbicide 320 g/ha; foliage application after 14-day growth; evaluated three weeks after application
Method in brief: as §3

blackgrass [18] = assay: Test Example 5: herbicidal effect by foliage application, plastic box (Table 20, symbol J); type: in vivo, blackgrass (Alopecurus myosuroides); details: amount of applied herbicide 320 g/ha; foliage application after 14-day growth; evaluated three weeks after application
Method in brief: as §3

Italian ryegrass [19] = assay: Test Example 5: herbicidal effect by foliage application, plastic box (Table 20, symbol K); type: in vivo, Italian ryegrass (Lolium multiflorum); details: amount of applied herbicide 320 g/ha; foliage application after 14-day growth; evaluated three weeks after application
Method in brief: as §3

windgrass [20] = assay: Test Example 5: herbicidal effect by foliage application, plastic box (Table 20, symbol L); type: in vivo, windgrass (Apera spica-venti); details: amount of applied herbicide 320 g/ha; foliage application after 14-day growth; evaluated three weeks after application
Method in brief: as §3

velvetleaf [21] = assay: Test Example 5: herbicidal effect by foliage application, plastic box (Table 20, symbol M); type: in vivo, velvetleaf (Abutilon theophrasti); details: amount of applied herbicide 320 g/ha; foliage application after 14-day growth; evaluated three weeks after application
Method in brief: as §3

redroot pigweed [22] = assay: Test Example 5: herbicidal effect by foliage application, plastic box (Table 20, symbol N); type: in vivo, redroot pigweed (Amaranthus retroflexus); details: amount of applied herbicide 320 g/ha; foliage application after 14-day growth; evaluated three weeks after application
Method in brief: as §3

lambsquarters [23] = assay: Test Example 5: herbicidal effect by foliage application, plastic box (Table 20, symbol O); type: in vivo, lambsquarters (Chenopodium album); details: amount of applied herbicide 320 g/ha; foliage application after 14-day growth; evaluated three weeks after application
Method in brief: as §3

chickweed [24] = assay: Test Example 5: herbicidal effect by foliage application, plastic box (Table 20, symbol P); type: in vivo, common chickweed (Stellaria media); details: amount of applied herbicide 320 g/ha; foliage application after 14-day growth; evaluated three weeks after application
Method in brief: as §3

false cleavers = assay: Test Example 5: herbicidal effect by foliage application, plastic box (Table 20, symbol Q); type: in vivo, false cleavers (Galium spurium); details: amount of applied herbicide 320 g/ha; foliage application after 14-day growth; evaluated three weeks after application
Method in brief: as §3

persian speedwell [25] = assay: Test Example 5: herbicidal effect by foliage application, plastic box (Table 20, symbol R); type: in vivo, Persian speedwell (Veronica persica); details: amount of applied herbicide 320 g/ha; foliage application after 14-day growth; evaluated three weeks after application
Method in brief: as §3

CCCC(=O)Oc1c(C)nn(C)c(=O)c1-c1c(-c2ccc(F)cc2)sc2cc(F)c(F)cc12 [5-002]
herbicidal effect on barnyard grass (H) (barnyard grass [1]): 4 (Herbicidal rate of 70% or more and less than 90%)
herbicidal effect on Chinese sprangletop (D) (Chinese sprangletop): 3 (Herbicidal rate of 40% or more and less than 70%)
herbicidal effect on rice flat sedge (E) (rice flat sedge): 0 (Herbicidal rate of 5% or less (almost no effect))
F: southern crabgrass, herbicidal effect grade (southern crabgrass [2]): 0 (Herbicidal rate of 5% or less (almost no effect))
G: green foxtail, herbicidal effect grade (green foxtail [3]): 4 (Herbicidal rate of 70% or more and less than 90%)
H: barnyard grass, herbicidal effect grade (barnyard grass [4]): 3 (Herbicidal rate of 40% or more and less than 70%)
I: wild oat, herbicidal effect grade (wild oat [5]): 3 (Herbicidal rate of 40% or more and less than 70%)
J: blackgrass, herbicidal effect grade (blackgrass [6]): 2 (Herbicidal rate of 20% or more and less than 40%)
K: Italian ryegrass, herbicidal effect grade (Italian ryegrass [7]): 5 (Herbicidal rate of 90% or more (almost completely withered))
L: windgrass, herbicidal effect grade (windgrass [8]): 5 (Herbicidal rate of 90% or more (almost completely withered))
M: velvetleaf, herbicidal effect grade (velvetleaf [9]): 3 (Herbicidal rate of 40% or more and less than 70%)
N: redroot pigweed, herbicidal effect grade (redroot pigweed [10]): 5 (Herbicidal rate of 90% or more (almost completely withered))
O: lambsquarters, herbicidal effect grade (lambsquarters [11]): 5 (Herbicidal rate of 90% or more (almost completely withered))
P: chickweed, herbicidal effect grade (chickweed [12]): 4 (Herbicidal rate of 70% or more and less than 90%)
R: persian speedwell, herbicidal effect grade (persian speedwell [13]): 5 (Herbicidal rate of 90% or more (almost completely withered))
Herbicidal effect by foliage application, F: southern crabgrass (southern crabgrass [14]): 5 (Herbicidal rate of 90% or more (almost completely withered))
Herbicidal effect by foliage application, G: green foxtail (green foxtail [15]): 5 (Herbicidal rate of 90% or more (almost completely withered))
Herbicidal effect by foliage application, H: barnyard grass (barnyard grass [16]): 4 (Herbicidal rate of 70% or more and less than 90%)
Herbicidal effect by foliage application, I: wild oat (wild oat [17]): 4 (Herbicidal rate of 70% or more and less than 90%)
Herbicidal effect by foliage application, J: blackgrass (blackgrass [18]): 4 (Herbicidal rate of 70% or more and less than 90%)
Herbicidal effect by foliage application, K: Italian ryegrass (Italian ryegrass [19]): 5 (Herbicidal rate of 90% or more (almost completely withered))
Herbicidal effect by foliage application, L: windgrass (windgrass [20]): 5 (Herbicidal rate of 90% or more (almost completely withered))
Herbicidal effect by foliage application, M: velvetleaf (velvetleaf [21]): 5 (Herbicidal rate of 90% or more (almost completely withered))
Herbicidal effect by foliage application, N: redroot pigweed (redroot pigweed [22]): 5 (Herbicidal rate of 90% or more (almost completely withered))
Herbicidal effect by foliage application, O: lambsquarters (lambsquarters [23]): 5 (Herbicidal rate of 90% or more (almost completely withered))
Herbicidal effect by foliage application, P: chickweed (chickweed [24]): 5 (Herbicidal rate of 90% or more (almost completely withered))
Herbicidal effect by foliage application, Q: false cleavers (false cleavers): 5 (Herbicidal rate of 90% or more (almost completely withered))
Herbicidal effect by foliage application, R: persian speedwell (persian speedwell [25]): 5 (Herbicidal rate of 90% or more (almost completely withered))
